Assay results: ChEMBL document CHEMBL1201862, “PubChem BioAssay data set” (2004)
Calls of active or inactive are those of the source.

Key:
[1] = biological target: Beta-galactosidase (Escherichia coli, UniProt Q8VNN2); assay: Dose response counterscreen for EBI2 assay utilizing the enzyme, b-galactosidase.; type: functional
[2] = cells; type: functional, cell-based
[3] = cells; type: functional, cell-based; remark: listed apart in the source
[4] = biological target: T1, Trace amine-associated receptor 1 (Homo sapiens, UniProt Q96RJ0); assay: Counterscreen for agonists of the human trace amine associated receptor 1 (hTAAR1): Fluorescence-based cell-based high throughput dose response assay to identify hTAAR1 agonist that also desensitize TAAR1 receptor response.; type: functional
T1 sequence (Q96RJ0 whole entry): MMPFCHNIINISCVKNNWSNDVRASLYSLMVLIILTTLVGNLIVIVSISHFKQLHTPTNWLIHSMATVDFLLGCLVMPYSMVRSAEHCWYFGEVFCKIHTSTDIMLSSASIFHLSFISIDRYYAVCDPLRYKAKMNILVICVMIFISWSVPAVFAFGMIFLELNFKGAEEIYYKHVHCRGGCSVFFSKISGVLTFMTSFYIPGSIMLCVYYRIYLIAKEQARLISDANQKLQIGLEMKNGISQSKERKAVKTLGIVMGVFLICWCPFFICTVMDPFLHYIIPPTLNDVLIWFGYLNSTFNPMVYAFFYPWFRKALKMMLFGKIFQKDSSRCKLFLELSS

[5] = biological target: T1, Trace amine-associated receptor 1; assay: Fluorescence-based cell-based high throughput dose response assay to identify agonists of the human trace amine associated receptor 1 (TAAR1).; type: functional
[6] = biological target: DNA dC->dU-editing enzyme APOBEC-3A (Homo sapiens, UniProt P31941); assay: Dose Response confirmation of small molecule APOBEC3A DNA Deaminase Inhibitors via a fluorescence-based single-stranded DNA deaminase assay. [Related pubchem assays (depositor defined):AID493011, AID493024]; type: functional
Sequence of DNA dC->dU-editing enzyme APOBEC-3A (P31941 whole entry): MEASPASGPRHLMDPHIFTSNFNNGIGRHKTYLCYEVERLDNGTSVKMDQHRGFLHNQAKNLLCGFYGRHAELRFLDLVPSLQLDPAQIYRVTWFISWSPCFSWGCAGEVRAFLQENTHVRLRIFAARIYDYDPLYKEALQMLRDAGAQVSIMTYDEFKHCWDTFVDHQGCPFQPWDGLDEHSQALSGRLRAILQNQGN

[7] = biological target: T2, Caspase-6 (Homo sapiens, UniProt P55212); assay: human caspase-6 inhibitors, dose response, biochemical, VEID-R110 fluorescence, cherry-pick (AID 720632)
T2 sequence (P55212 whole entry): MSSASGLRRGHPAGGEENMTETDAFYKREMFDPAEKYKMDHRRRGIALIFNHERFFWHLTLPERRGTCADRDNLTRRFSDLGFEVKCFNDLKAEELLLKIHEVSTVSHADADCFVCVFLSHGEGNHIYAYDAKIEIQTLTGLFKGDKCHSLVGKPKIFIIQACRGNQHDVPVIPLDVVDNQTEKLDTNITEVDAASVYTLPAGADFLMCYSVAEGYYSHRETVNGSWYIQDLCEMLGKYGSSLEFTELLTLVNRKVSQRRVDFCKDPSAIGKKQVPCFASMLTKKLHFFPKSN

[8] = biological target: Large T antigen (Simian virus 40, UniProt P03070); type: functional, Betapolyomavirus macacae;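 also: Confirmatory-stage PubChem screen for compounds that inhibit SV40 T antigen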
Sequence of Large T antigen (P03070 whole entry): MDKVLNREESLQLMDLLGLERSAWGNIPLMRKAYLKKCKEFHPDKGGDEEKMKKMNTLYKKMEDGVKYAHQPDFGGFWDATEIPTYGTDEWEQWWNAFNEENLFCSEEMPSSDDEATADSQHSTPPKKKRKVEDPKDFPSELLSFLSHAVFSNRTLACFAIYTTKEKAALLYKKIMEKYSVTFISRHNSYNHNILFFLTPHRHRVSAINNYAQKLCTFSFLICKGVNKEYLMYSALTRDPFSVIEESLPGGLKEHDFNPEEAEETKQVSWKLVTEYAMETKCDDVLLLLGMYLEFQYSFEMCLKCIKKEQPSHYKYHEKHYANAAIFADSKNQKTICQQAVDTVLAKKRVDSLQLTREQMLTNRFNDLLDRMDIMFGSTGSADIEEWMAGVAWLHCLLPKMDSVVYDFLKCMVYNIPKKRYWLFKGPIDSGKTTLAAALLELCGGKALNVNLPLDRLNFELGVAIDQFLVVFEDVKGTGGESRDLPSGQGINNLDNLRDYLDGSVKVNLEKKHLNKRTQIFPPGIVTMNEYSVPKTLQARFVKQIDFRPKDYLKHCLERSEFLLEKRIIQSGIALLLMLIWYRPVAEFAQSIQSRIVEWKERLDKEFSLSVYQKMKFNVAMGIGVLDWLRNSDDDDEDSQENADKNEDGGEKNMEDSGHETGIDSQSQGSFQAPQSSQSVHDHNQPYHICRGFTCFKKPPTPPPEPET

[9] = biological target: T3, Small ubiquitin-related modifier 1 (Homo sapiens, UniProt P63165); assay: inhibitors of SUMO1 peptide binding, dose response, biochemical, fluorescence polarization, uHTS hits (AID 624382); type: functional; conditions: read-out: IC50_Mean
T3 sequence (P63165 whole entry): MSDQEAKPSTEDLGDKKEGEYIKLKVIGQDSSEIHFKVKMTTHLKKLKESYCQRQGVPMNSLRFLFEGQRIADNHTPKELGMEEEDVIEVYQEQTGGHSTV

[10] = biological target: DNA dC->dU-editing enzyme APOBEC-3G (Homo sapiens, UniProt Q9HC16); type: functional;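 also: Dose-response counterscreen measuring inhibition of APOBEC3G DNA deaminase activity, run while confirming APOBEC3A inhibitors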
Sequence of DNA dC->dU-editing enzyme APOBEC-3G (Q9HC16 whole entry): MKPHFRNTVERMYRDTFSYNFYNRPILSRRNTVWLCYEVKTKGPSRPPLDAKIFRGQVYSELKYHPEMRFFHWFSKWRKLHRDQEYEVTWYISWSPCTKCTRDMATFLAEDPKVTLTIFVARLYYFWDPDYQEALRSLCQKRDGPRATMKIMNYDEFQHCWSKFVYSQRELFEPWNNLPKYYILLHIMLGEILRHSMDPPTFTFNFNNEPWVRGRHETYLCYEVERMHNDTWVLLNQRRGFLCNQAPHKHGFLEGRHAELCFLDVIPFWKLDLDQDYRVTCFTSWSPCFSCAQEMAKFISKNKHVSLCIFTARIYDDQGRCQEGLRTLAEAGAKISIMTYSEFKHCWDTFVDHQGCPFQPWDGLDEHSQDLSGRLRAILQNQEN

[11] = biological target: T4, Zinc finger protein mex-5 (Caenorhabditis elegans, UniProt Q9XUB2); assay: MEX-5/TCR-2 RNA interaction inhibitors, dose response, biochemical, C. elegans, fluorescence polarization (AID 1960)
T4 sequence (Q9XUB2 whole entry): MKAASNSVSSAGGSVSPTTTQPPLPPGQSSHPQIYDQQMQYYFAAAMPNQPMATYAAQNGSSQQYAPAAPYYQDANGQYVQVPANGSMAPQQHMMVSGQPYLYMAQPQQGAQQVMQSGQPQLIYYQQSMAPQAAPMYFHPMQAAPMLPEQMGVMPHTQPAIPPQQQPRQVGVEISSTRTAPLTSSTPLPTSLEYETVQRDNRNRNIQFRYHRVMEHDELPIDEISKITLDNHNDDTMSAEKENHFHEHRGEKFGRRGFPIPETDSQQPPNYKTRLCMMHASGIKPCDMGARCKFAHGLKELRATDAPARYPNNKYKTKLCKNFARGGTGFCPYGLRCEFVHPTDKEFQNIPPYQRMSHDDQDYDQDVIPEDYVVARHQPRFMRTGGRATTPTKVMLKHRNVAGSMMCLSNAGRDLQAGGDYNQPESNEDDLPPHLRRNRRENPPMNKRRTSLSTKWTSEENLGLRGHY

[12] = biological target: T5, RNA-binding protein pos-1 (Caenorhabditis elegans, UniProt G5EF15); assay: inhibitors of POS-1/mex-3 RNA binding, dose response, biochemical, fluorescence polarization (AID 1964);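 also: purified POS-1 fused to maltose binding protein made in E. coli; potency of compounds blocking POS-1 binding to fluorescent RNA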
T5 sequence (G5EF15 whole entry): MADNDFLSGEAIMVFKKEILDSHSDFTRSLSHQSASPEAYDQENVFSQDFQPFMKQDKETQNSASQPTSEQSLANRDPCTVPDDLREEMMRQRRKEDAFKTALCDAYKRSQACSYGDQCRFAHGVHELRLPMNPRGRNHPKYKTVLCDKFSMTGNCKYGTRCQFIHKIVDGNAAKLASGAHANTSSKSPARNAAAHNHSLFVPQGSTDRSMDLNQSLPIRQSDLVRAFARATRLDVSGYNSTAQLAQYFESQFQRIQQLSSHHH

[13] = biological target: T3, Small ubiquitin-related modifier 1; assay: inhibitors of SUMO1 partner interactions, dose response, biochemical, FRET (AID 624383); type: functional; conditions: read-out: IC50_Mean
[14] = biological target: T6, Histone-lysine N-methyltransferase NSD2 (Homo sapiens, UniProt O96028); type: biochemical
T6 sequence (O96028 whole entry): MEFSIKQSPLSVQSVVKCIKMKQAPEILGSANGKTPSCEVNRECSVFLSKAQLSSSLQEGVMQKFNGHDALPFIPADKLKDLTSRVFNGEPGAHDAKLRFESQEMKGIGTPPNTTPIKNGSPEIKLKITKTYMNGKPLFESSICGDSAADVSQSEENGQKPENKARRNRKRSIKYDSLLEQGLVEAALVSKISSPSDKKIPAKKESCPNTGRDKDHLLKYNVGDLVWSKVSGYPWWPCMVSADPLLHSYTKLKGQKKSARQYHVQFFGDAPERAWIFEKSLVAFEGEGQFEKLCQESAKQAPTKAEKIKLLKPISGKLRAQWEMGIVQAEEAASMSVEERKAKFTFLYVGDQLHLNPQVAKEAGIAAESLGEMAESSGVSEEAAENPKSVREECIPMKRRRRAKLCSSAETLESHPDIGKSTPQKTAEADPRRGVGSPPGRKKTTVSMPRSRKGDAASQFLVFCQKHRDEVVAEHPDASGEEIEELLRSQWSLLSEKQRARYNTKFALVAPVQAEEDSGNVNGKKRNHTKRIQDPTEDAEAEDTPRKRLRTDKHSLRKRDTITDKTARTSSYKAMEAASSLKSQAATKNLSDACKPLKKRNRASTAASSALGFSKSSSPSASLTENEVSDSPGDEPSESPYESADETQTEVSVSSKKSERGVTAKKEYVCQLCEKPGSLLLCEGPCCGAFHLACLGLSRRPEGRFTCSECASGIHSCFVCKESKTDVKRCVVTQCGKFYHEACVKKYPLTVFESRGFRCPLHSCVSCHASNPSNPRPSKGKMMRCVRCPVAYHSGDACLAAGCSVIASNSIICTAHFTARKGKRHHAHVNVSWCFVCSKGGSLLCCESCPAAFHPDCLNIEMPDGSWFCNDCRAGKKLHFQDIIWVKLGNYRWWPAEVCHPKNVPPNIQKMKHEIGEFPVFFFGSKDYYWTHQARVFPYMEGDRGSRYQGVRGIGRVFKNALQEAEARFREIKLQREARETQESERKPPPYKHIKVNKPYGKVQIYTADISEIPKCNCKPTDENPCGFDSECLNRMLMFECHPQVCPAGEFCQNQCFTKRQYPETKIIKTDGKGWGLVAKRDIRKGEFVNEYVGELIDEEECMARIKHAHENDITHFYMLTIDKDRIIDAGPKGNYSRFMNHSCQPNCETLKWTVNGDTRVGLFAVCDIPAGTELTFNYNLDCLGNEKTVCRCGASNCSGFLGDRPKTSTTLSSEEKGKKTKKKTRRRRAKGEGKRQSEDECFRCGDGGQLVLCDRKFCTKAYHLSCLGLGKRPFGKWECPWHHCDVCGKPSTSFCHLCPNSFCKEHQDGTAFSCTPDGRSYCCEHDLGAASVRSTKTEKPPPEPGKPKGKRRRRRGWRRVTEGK

[15] = biological target: Endoplasmic reticulum aminopeptidase 1 (Homo sapiens, UniProt Q9NZ08); assay: ERAP1 aminopeptidase inhibitors, dose response, biochemical, cherry-pick, set 2, plate reader (AID 743314)
Sequence of Endoplasmic reticulum aminopeptidase 1 (Q9NZ08 whole entry): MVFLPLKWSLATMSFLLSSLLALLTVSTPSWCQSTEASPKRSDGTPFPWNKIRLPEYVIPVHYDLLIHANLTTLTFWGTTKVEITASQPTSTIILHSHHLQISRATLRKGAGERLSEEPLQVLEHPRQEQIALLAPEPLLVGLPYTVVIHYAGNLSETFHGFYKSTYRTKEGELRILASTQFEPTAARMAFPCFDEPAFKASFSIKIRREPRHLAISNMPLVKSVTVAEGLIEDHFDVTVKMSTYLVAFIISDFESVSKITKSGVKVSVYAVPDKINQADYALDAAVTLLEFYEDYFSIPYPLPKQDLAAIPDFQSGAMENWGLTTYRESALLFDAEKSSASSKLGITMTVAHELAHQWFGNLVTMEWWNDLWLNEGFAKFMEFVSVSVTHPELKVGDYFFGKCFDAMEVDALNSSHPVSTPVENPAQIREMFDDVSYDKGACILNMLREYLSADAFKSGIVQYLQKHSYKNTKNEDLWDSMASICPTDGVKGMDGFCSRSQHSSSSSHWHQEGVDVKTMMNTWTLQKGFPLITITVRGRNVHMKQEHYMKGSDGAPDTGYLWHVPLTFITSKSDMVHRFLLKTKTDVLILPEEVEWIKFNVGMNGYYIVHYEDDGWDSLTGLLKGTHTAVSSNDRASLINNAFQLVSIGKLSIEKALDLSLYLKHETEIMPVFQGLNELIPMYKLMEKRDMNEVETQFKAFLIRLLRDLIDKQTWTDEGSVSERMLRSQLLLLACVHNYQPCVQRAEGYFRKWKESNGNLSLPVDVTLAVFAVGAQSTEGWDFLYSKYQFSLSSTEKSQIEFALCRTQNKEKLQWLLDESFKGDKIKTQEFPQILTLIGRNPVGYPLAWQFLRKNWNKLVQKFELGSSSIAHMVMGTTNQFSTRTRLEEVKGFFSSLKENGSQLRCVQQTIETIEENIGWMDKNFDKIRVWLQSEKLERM

[16] = HEp-2 cell cytotoxicity, dose response, cytotoxicity control for RSV inhibitor project, HTS (AID 2410); type: functional; conditions: human respiratory syncytial virus
[17] = system: Vero; assay: Vero cell toxicity, dose response, cytotoxicity control, plate reader, cherry-pick samples (AID 687020); type: functional, cell-based; conditions: Chlorocebus sabaeus
[18] = T. cruzi growth inhibition in host cells, dose response, cell-based, plate reader, dry powder, set 2 (AID 652275); type: functional
[19] = biological target: T7, Cytochrome P450 1A2 (Homo sapiens, UniProt P05177);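 also: PubChem cytochrome P450 panel assay, CYP1A2 panel member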
T7 sequence (P05177 whole entry): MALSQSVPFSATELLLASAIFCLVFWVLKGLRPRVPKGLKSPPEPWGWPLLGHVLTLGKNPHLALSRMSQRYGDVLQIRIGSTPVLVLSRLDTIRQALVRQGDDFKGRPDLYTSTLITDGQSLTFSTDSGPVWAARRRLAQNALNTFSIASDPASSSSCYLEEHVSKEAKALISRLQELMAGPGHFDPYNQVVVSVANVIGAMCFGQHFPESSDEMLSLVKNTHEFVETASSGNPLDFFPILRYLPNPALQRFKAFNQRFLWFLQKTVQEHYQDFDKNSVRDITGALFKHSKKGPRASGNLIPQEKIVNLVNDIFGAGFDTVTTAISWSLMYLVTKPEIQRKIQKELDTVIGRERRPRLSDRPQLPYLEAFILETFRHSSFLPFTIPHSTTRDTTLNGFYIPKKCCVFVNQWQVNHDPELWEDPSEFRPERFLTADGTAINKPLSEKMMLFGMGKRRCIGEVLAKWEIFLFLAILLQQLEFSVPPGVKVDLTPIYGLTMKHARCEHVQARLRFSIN

[20] = system: P388/ADR; assay: cells; type: functional; conditions: Mus musculus
[21] = system: SN12K1; assay: cells; type: functional; conditions: Homo sapiens
[22] = system: P388; assay: cells; type: functional; conditions: Mus musculus
[23] = biological target: FAD-linked sulfhydryl oxidase ALR (Homo sapiens, UniProt P55789); assay: inhibitors of human ALR sulfhydryl oxidase, dose response, biochemical, H2O2 detection, luminescence, cherry-pick (AID 493248)
Sequence of FAD-linked sulfhydryl oxidase ALR (P55789 whole entry): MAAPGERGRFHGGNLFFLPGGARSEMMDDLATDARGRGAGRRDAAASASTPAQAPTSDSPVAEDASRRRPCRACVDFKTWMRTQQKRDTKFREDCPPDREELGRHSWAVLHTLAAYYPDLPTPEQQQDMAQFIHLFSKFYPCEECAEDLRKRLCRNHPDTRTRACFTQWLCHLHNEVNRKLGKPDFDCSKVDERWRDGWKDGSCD

Sequence of Beta-galactosidase (Q8VNN2 whole entry): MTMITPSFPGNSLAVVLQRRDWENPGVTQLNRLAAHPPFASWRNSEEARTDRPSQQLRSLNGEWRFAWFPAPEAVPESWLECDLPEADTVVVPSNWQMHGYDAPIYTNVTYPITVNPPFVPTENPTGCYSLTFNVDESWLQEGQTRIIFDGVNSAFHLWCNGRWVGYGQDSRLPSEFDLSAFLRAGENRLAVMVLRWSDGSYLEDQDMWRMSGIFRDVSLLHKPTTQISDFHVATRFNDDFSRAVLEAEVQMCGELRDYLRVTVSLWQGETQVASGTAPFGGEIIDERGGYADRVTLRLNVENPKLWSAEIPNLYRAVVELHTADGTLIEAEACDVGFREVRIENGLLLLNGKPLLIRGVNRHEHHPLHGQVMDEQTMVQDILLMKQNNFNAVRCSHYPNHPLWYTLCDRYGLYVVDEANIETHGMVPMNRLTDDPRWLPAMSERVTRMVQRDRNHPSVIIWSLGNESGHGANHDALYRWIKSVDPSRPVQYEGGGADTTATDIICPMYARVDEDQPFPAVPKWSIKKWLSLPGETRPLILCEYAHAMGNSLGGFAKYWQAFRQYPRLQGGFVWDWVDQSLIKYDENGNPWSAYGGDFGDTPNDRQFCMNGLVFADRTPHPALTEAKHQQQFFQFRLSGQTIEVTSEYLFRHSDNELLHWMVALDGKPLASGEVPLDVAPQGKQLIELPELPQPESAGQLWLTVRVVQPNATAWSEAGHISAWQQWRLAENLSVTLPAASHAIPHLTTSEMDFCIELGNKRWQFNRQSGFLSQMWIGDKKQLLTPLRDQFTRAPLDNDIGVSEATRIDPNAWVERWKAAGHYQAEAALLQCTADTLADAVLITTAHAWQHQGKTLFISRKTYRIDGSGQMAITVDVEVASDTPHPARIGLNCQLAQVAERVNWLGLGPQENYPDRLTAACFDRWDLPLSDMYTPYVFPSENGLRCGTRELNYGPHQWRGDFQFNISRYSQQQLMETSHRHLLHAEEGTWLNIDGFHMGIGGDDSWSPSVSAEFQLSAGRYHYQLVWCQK

O=C(c1cc2ccccc2o1)N1CCN(S(=O)(=O)c2ccc(Cl)s2)CC1
IC50 [1]: > 80 µM (inactive)

O=C(O)C1C2CCC(C2)C1C(=O)NCCc1ccc(F)cc1 (configuration not stated)
IC50 [2]: > 29.9 µM (inactive) | EC50 [3]: > 29.9 µM (inactive) | IC50 [4]: > 29.9 µM (inactive) | EC50 [5]: 14.8 µM (inactive)

Nc1ccc(Nc2ccccc2)c(S(=O)(=O)O)c1
IC50 [6]: 16.5 µM (active) | AC50 [7]: 1.22 µM (active) | IC50 [8]: 7.15 µM (active) | IC50 [9]: > 66.6 µM (inactive) | IC50 [10]: 34.1 µM (active) | EC50 [11]: 34 µM (active) | EC50 [12]: 108 µM (active) | IC50 [13]: 12.8 µM (active) | AC50 [14]: 8.41 µM (active)

Cc1c(-c2ccccc2)c(=O)oc2cc(O)ccc12
AC50 [15]: 4.79 µM (active) | CC50 [16]: 42.4 µM (active)

O=C(CSc1nnc(-c2ccc(O)cc2)n1Cc1ccccc1)NNC(=O)c1ccc(Br)cc1
IC50 [1]: > 80 µM (inactive)

O=C(Nc1ccccc1)Nc1ccno1
IC50 [2]: > 29.9 µM (inactive) | EC50 [3]: > 29.9 µM (inactive) | IC50 [4]: 4.63 µM (active) | EC50 [5]: 4.65 µM (active)

COc1ccc(C(CNC(=O)COc2cc(C)ccc2Cl)N2CCCCC2)cc1 (configuration not stated)
AC50 [17]: 17.6 µM (active)

COCCNc1nc(Nc2ccccc2Cl)c2sccc2n1
AC50 [17]: 6.94 µM (active)

C#CCNC(=O)C[C@@H]1C[C@@]2(C(=O)OC)CCCCC=C2N(Cc2cccc3ccccc23)C1=O
AC50 [17]: 36.6 µM (active)

COc1cccc(C(=O)N[C@@H](Cc2cccnc2)C(=O)N2CCC[C@H]2C(=O)NCCc2ccccc2Cl)c1
IC50 [2]: > 29.9 µM (inactive) | EC50 [3]: > 29.9 µM (inactive) | IC50 [4]: 4.58 µM (active) | EC50 [5]: 2.18 µM (active)

C[C@H]1CN([C@@H](C)CO)C(=O)c2cccc(NC(=O)c3ccncc3)c2O[C@@H]1CN(C)Cc1ccc(F)c(Cl)c1
AC50 [18]: 1.98 nM (active)

Cc1cccc(-c2ccc([C@H]3[C@H](CO)N4CCCCN(Cc5cncnc5)C[C@@H]34)cc2)c1
AC50 [18]: 198 nM (active)

CC(C)N1C[C@@H](CNCc2ccc(Oc3ccccc3)cc2)Oc2c(NC(=O)c3ccncc3)cccc2C1=O
AC50 [18]: 6.66 nM (active)

COc1cc2ccc(=O)oc2cc1O [SCOPOLETIN]
AC50 [19]: 5.01 µM (inconclusive) | GI50 [20]: 12.5 µM (inactive) | GI50 [21]: 19.4 µM (inactive) | GI50 [22]: 5.55 µM (inactive) | AC50 [15]: 5.79 µM (active) | AC50 [23]: 4.4 µM (active)
